From patent US11634447B2 (priority 2012, dated 2023)
Where “and” joins values, the source holds several entries; their conditions need not be identical. Equal entries are not always repeated.

How the values were obtained:
FimH-CRD [1] = target: T1, FimH-CRD (Escherichia coli, UniProt P08191); test: Competitive binding assay by fluorescence polarization, assay 1 (compounds prepared by manual dilution); design: species or system E. coli
T1 construct: The first 177 amino acids of the FimH protein are expressed as a fusion protein; thrombin tag (printed as 'fusion protein with thrombin') (cleaved yes); made in house; host or cells: bacteria (pET21b plasmid)
T1 sequence (P08191 22-177): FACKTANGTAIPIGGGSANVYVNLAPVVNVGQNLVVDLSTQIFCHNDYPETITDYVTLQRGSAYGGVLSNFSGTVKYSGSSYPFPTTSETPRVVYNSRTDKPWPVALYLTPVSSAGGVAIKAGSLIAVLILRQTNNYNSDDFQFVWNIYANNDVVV
Method: (§1) The first 177 amino acids of the FimH protein are expressed as a fusion protein with thrombin in a pET21b plasmid in bacteria. This FimH protein sequence contains the carbohydrate recognition domain (CRD) and shall be termed FimH-CRD. Following bacterial expression of the protein, the FimH-CRD protein is purified to homogeneity and the thrombin tag removed by protease cleavage. A competitive binding assay by fluorescence polarization is performed using 5 nM of the Alexa 647 mannoside probe and 60 nM of the FimH-CRD. The samples are assayed in a low volume 384 well microtiter plate in a final volume of 20 μl. The final assay buffer conditions are the following, 50 mM Tris-Cl, ph 7.0, 100 mM NaCl, 1 mM EDTA, 5 mM β-mercaptoethanol, 0.05% BSA and 2.5% DMSO. Two assays are performed for FimH, termed assay 1 or assay 2. The assay conditions are the same for both assays except the following: assay 1 has compounds prepared by manual dilution in a serial dilution factor with 12-point dose response while assay 2 has compounds prepared by a robotics system also through a serial dilution factor (12 point dose response) and initially prepared in duplicate in 384 well-Corning polypropylene round bottom plates. The assay 2 plates have compound which is then frozen and must be thawed prior to use. Initially the Alexa 647 probe and the FimH-CRD are added to the assay buffer and then 0.5 μl of test compound (assay 1 or 2) between 0.4 nM to 75 μM final concentration are added (12 point titration with 3-fold serial dilution). Control wells for the Alexa 647 probe are prepared with the same conditions except for the addition of the FimH-CRD protein. Plates are then incubated for 5 hrs at room temperature in the dark and under humid conditions to prevent drying. Plates are read using the SpectraMax Paradigm multi-mode plate reader and the appropriate fluorescent polarization detection cartridge (Alexa-647).
(§2) Alexa 647 mannoside probe is prepared using the similar procedure reported for FAM mannoside (Han, Z. et. al., 2010, J. Med. Chem., 53, 4779) and is described in the scheme below.
(§3) To a blue colored stirred solution of (2S,3S,4S,5S,6R)-2-(4-aminobutoxy)-6-(hydroxymethyl)tetrahydropyran-3,4,5-triol (2.21 mg, 0.009 mmol) and the (2E)-2-[(2E,4E)-5-[3,3-dimethyl-5-sulfonato-1-(3-sulfonatopropyl)indol-1-ium-2-yl]penta-2,4-dienylidene]-3-[6-(2,5-dioxopyrrolidin-1-yl)oxy-6-oxo-hexyl]-3-methyl-1-(3-sulfonatopropyl)indoline-5-sulfonate (Potassium Ion (3)) (4.9 mg, 0.0044 mmol) in DMF (44 μL) is added Et3N (5.4 mg, 7.0 μL, 0.053 mmol) at RT. The solution is stirred at room temperature over night, concentrated, dissolved in water and purified on 12 g C-18 silica gel cartridge on Isolera system using acetonitrile in water (0 to 40%, 10 CV) and followed by lyophilization to afford Alexa 647 mannoside probe (3.3 mg, 34%) as deep blue solid.
(§4) The Kd values of the compounds are determined from dose response curves using twelve concentrations per compound in duplicate. Curves are fitted to data points using Fluorescence Polarization competitive displacement analysis, and Kds are interpolated from the resulting curves using GraphPad Prism software, version […] (GraphPad software Inc., San Diego, Calif., USA).

[2] = tested on: bacterial strain LF82 binding to the glycoprotein BSA-(Mannose)3; test: Bacterial Binding Assay (BBA); type: cell-based, Escherichia coli; conditions: read-out: Bacterial Binding Assay IC50, LF82/Luciferase strain binding to BSA-(Man)3 coated plates, luminescence
In short: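 Inhibition of LF82/luciferase E. coli adhesion is read as luminescence after washing off unbound cells. Compound and bacteria (10^7 per well) are co-incubated 40-75 min at room temperature on wells coated with 0.5-2 μg/mL BSA-(Man)3, with BSA-only wells as background; IC50 values derived.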

FimH-CRD [3] = target: T1, FimH-CRD; test: Competitive binding assay by fluorescence polarization, assay 2 (compounds prepared by a robotics system, plates frozen and thawed); design: species or system E. coli; conditions: Assay 2 Kd, 5 nM Alexa 647 mannoside probe, 60 nM FimH-CRD, replicate values in one cell
Method: as §1, §2, §3, §4

[4] = Assay 1 Kd, 5 nM Alexa 647 mannoside probe, 60 nM FimH-CRD, replicate values in one cell
[5] = read-out: Assay 1 Kd, 5 nM Alexa 647 mannoside probe, 60 nM FimH-CRD, replicate values in one cell

Compound | Kd (FimH-CRD [1]; [4]) | IC50 [2] [nM] | Kd (FimH-CRD [1]; [5]) [nM] | Kd (FimH-CRD [3])
OC[C@H]1O[C@H](c2cccc([C@H]3O[C@H](CO)[C@@H](O)[C@H](O)[C@@H]3O)c2)[C@@H](O)[C@@H](O)[C@@H]1O [Compound 2] | 125 nM and 62 nM | 4950 |  | 
OC[C@H]1O[C@H](n2cc(-c3cccc(-c4cn([C@H]5O[C@H](CO)[C@@H](O)[C@H](O)[C@@H]5O)nn4)c3)nn2)[C@@H](O)[C@@H](O)[C@@H]1O [Compound 19, ((2R,3S,4S,5S,6S)-2-(Hydroxymethyl)-6-[4-[3-[1-[(2S,3S,4S,5S,6R)-3,4,5-trihydroxy-6-(hydroxymethyl)tetrahydropyran-2-yl]triazol-4-yl]phenyl]triazol-1-yl]tetrahydropyran-3,4,5-triol)] | 6 nM and < 5 nM | 430 |  | 
OC[C@H]1O[C@H](C/C=C/c2ccc(/C=C/C[C@H]3O[C@H](CO)[C@@H](O)[C@H](O)[C@@H]3O)cc2)[C@@H](O)[C@@H](O)[C@@H]1O [Compound 24, ((2R,3S,4R,5S,6R)-2-(Hydroxymethyl)-6-[(E)-3-[4-[(E)-3-[(2R,3S,4R,5S,6R)-3,4,5-trihydroxy-6-(hydroxymethyl)tetrahydropyran-2-yl]prop-1-enyl]phenyl]allyl]tetrahydropyran-3,4,5-triol)] | < 5 nM | 650 | < 5 | 
COC(=O)c1cc(/C=C/C[C@H]2O[C@H](CO)[C@@H](O)[C@H](O)[C@@H]2O)ccc1/C=C/C[C@H]1O[C@H](CO)[C@@H](O)[C@H](O)[C@@H]1O [Compound 26, (Methyl 2,5-bis[(E)-3-[(2R,3S,4R,5S,6R)-3,4,5-trihydroxy-6-(hydroxymethyl)tetrahydropyran-2-yl]prop-1-enyl]benzoate)] | < 5 nM | 850 | < 5 | 
Cc1cc(/C=C/C[C@H]2O[C@H](CO)[C@@H](O)[C@H](O)[C@@H]2O)ccc1/C=C/C[C@H]1O[C@H](CO)[C@@H](O)[C@H](O)[C@@H]1O [Compound 27, ((2R,3S,4R,5S,6R)-2-(Hydroxymethyl)-6-[(E)-3-[3-methyl-4-[(E)-3-[(2R,3S,4R,5S,6R)-3,4,5-trihydroxy-6-(hydroxymethyl)tetrahydropyran-2-yl]prop-1-enyl]pheny]allyl]tetrahydropyran-3,4,5-triol)] | < 5 nM | 800 | < 5 | 
OC[C@H]1O[C@H](C/C=C/c2ccc(/C=C/C[C@H]3O[C@H](CO)[C@@H](O)[C@H](O)[C@@H]3O)c(F)c2)[C@@H](O)[C@@H](O)[C@@H]1O [Compound 28] | < 5 nM | 770 | < 5 | 
OC[C@H]1O[C@H](C/C=C/c2ccc(/C=C/C[C@H]3O[C@H](CO)[C@@H](O)[C@H](O)[C@@H]3O)c(Cl)c2)[C@@H](O)[C@@H](O)[C@@H]1O [Compound 29, ((2R,3S,4R,5S,6R)-2-[(E)-3-[3-Chloro-4-[(E)-3-[(2R,3S,4R,5S,6R)-3,4,5-trihydroxy-6-(hydroxymethyl)tetrahydropyran-2-yl]prop-1-enyl]phenyl]allyl]-6-(hydroxymethyl)tetrahydropyran-3,4,5-triol)] | 6 nM and 8 nM | 1300 |  | 
COc1cc(/C=C/C[C@H]2O[C@H](CO)[C@@H](O)[C@H](O)[C@@H]2O)c(OC)cc1/C=C/C[C@H]1O[C@H](CO)[C@@H](O)[C@H](O)[C@@H]1O [Compound 30, ((2R,3S,4R,5S,6R)-2-[(E)-3-[2,5-Dimethoxy-4-[(E)-3-[(2R,3S,4R,5S,6R)-3,4,5-trihydroxy-6-(hydroxymethyl)tetrahydropyran-2-yl]prop-1-enyl]phenyl]allyl]-6-(hydroxymethyl)tetrahydropyran-3,4,5-triol)] | 7 nM and < 5 nM | 300 |  | 
O=[N+]([O-])c1cc(/C=C/C[C@H]2O[C@H](CO)[C@@H](O)[C@H](O)[C@@H]2O)ccc1/C=C/C[C@H]1O[C@H](CO)[C@@H](O)[C@H](O)[C@@H]1O [Compound 32, ((2R,3S,4R,5S,6R)-2-(Hydroxymethyl)-6-[(E)-3-[3-nitro-4-[(E)-3-[(2R,3S,4R,5S,6R)-3,4,5-trihydroxy-6-(hydroxymethyl)tetrahydropyran-2-yl]prop-1-enyl]phenyl]allyl]tetrahydropyran-3,4,5-triol)] | < 5 nM | 340 | < 5 | 
N#Cc1cc(/C=C/C[C@H]2O[C@H](CO)[C@@H](O)[C@H](O)[C@@H]2O)ccc1/C=C/C[C@H]1O[C@H](CO)[C@@H](O)[C@H](O)[C@@H]1O [Compound 33, (2,5-Bis[(E)-3-[(2R,3S,4R,5S,6R)-3,4,5-trihydroxy-6-(hydroxymethyl)tetrahydropyran-2-yl]prop-1-enyl]benzonitrile)] | < 5 nM | 390 | < 5 | 
CC(=O)N[C@@H]1[C@@H](O)[C@H](O)[C@@H](CO)O[C@H]1n1cc([C@H]2O[C@H](CO)[C@@H](O)[C@H](O)[C@@H]2O)nn1 [Compound 45, (N-[(2R,3R,4R,5S,6R)-4,5-Dihydroxy-6-(hydroxymethyl)-2-[4-[(2R,3S,4R,5S,6R)-3,4,5-trihydroxy-6-(hydroxymethyl)tetrahydropyran-2-yl]triazol-1-yl]tetrahydropyran-3-yl]acetamide)] |  |  |  | 707 nM and 576 nM and 558 nM and 591 nM
OC[C@H]1O[C@H](c2ccc([C@H]3O[C@H](CO)[C@@H](O)[C@H](O)[C@@H]3O)s2)[C@@H](O)[C@@H](O)[C@@H]1O [Compound 46, ((2R,3S,4S,5S,6S)-2-(Hydroxymethyl)-6-[5-[(2S,3S,4S,5S,6R)-3,4,5-trihydroxy-6-(hydroxymethyl)tetrahydropyran-2-yl]-2-thienyl]tetrahydropyran-3,4,5-triol)] |  |  |  | 11 nM and 9 nM and 16 nM and 14 nM
OC[C@H]1O[C@H](c2csc([C@H]3O[C@H](CO)[C@@H](O)[C@H](O)[C@@H]3O)c2)[C@@H](O)[C@@H](O)[C@@H]1O [Compound 47, ((2R,3S,4R,5S,6R)-2-(Hydroxymethyl)-6-[5-[(2S,3S,4S,5S,6R)-3,4,5-trihydroxy-6-(hydroxymethyl)tetrahydropyran-2-yl]-3-thienyl]tetrahydropyran-3,4,5-triol)] |  |  |  | 44 nM and 37 nM and 51 nM and 36 nM
O=C(C[C@H]1O[C@H](CO)[C@@H](O)[C@H](O)[C@@H]1O)Nc1cccc(NC(=O)C[C@H]2O[C@H](CO)[C@@H](O)[C@H](O)[C@@H]2O)c1 [Compound 48, (2-[(2R,3S,4R,5S,6R)-3,4,5-Trihydroxy-6-(hydroxymethyl)tetrahydropyran-2-yl]-N-[3-[[2-[(2R,3S,4R,5S,6R)-3,4,5-trihydroxy-6-(hydroxymethyl)tetrahydropyran-2-yl]acetyl]amino]phenyl]acetamide)] |  |  |  | 79 nM and 50 nM and 63 nM
O=C(C[C@H]1O[C@H](CO)[C@@H](O)[C@H](O)[C@@H]1O)NCc1ccc(CNC(=O)C[C@H]2O[C@H](CO)[C@@H](O)[C@H](O)[C@@H]2O)cc1 [Compound 49, (2-[(2R,3S,4R,5S,6R)-3,4,5-Trihydroxy-6-(hydroxymethyl)tetrahydropyran-2-yl]-N-[[4-[[[2-[(2R,3S,4R,5S,6R)-3,4,5-trihydroxy-6-(hydroxymethyl)tetrahydropyran-2-yl]acetyl]amino]methyl]phenyl]methyl]acetamide)] |  |  |  | 149 nM and 87 nM
